Measured values from publication PMC11945486, “TAS1R2/TAS1R3 Single-Nucleotide Polymorphisms Affect Sweet Taste Receptor Activation by Sweeteners: The SWEET Project” (Nutrients, 2025).
Read-outs that look alike come from different tables or passages of the source. No end group written: not given here.

Target: T1, human TAS1R2-WT/TAS1R3-G367C (Homo sapiens, UniProt Q7RTX0+Q8TE23, G367C)
T1 construct: expressed in transfected cells; host or cells: HEK293T stably expressing Gα16gust44
T1 sequence (Q8TE23 20-839): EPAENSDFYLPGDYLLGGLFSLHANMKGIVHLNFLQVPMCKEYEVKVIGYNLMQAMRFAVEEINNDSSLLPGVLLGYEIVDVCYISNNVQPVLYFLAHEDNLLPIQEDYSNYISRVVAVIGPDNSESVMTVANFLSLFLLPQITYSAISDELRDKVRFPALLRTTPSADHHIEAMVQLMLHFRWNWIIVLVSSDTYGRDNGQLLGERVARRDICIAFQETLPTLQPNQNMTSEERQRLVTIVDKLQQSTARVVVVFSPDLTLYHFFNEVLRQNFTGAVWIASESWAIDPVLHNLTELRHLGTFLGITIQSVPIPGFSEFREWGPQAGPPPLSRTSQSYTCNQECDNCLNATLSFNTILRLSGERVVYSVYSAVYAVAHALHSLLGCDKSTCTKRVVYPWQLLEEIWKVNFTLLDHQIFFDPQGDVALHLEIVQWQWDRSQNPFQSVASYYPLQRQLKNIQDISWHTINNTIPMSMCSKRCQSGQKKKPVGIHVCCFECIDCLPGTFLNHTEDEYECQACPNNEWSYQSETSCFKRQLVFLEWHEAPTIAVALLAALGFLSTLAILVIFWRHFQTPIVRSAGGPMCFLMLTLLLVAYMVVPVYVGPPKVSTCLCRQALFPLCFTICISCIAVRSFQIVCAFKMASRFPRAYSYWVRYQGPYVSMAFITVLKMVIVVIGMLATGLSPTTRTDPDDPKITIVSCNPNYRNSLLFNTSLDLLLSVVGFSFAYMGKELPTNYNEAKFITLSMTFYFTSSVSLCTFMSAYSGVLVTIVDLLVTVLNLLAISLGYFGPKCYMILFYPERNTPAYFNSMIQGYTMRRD
T1 sequence (Q7RTX0 21-852 G367C): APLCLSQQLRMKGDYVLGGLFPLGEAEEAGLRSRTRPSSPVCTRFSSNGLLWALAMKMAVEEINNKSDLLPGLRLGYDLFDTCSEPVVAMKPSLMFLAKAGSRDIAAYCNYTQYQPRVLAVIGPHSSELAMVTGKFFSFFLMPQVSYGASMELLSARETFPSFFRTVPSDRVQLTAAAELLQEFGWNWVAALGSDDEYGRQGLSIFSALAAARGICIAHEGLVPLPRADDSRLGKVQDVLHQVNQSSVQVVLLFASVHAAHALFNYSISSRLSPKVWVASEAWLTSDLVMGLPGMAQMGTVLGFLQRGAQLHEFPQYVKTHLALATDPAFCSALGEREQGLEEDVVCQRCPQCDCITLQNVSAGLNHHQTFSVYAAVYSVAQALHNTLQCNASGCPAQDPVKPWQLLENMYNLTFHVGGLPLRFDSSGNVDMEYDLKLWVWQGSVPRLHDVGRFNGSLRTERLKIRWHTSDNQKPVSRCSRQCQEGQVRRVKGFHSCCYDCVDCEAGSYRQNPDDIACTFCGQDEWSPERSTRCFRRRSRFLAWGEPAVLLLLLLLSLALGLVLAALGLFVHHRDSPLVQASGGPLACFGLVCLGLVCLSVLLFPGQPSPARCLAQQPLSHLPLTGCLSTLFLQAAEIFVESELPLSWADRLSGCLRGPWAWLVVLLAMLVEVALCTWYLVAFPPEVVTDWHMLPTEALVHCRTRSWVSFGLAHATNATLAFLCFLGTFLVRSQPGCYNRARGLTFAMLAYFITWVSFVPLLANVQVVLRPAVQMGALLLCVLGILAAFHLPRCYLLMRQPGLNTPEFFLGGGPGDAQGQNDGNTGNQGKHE
Experiment: Calcium mobilisation assay, TAS1R2-WT with TAS1R3 variant G367C
Format: cell-based
Conditions: for Max ΔF/F0: maximal signal amplitude
Excerpt: The coding sequences for TAS1R2 and TAS1R3 were commercially synthesised, and the human codon was optimised for expression in human cells. The coding sequences of human TAS1R2 and TAS1R3 were subcloned and inserted into the mammalian expression vectors pcDNA6/myc-HisA and pcDNA4/myc-HisA (Invitrogen; Thermo Fisher Scientific; Illkirch, France) between the EcoRI and NotI restriction sites, generating the plasmids pcDNA6-TAS1R2 and pcDNA4-TAS1R3, respectively. To increase protein expression in mammalian cells, an upstream start codon was used, which was a sequence called MAX, corresponding to the QBI SP163 element also described in pcDNA4-HisMax (Invitrogen; Thermo Fisher Scientific; Illkirch, France). To measure the expression level of the receptor by immunohistochemistry, we used the FLAG sequence ([…]) in the C-terminal position, which encodes the FLAG tag epitope. SNP variants of TAS1R2 and TAS1R3 were constructed based on […], respectively, using site-directed mutagenesis (Genewiz; Leipzig, Germany).
The HEK293T cells were kindly provided by Jay P. Slack (Givaudan Flavors Corporation; Cincinnati, OH, USA). HEK293T cells stably transfected with Gα16gust44 [43, 67] were seeded in poly-D-lysine-coated clear-bottom black 96-well plates (0.35 × 10^5 cells/well) in high-glucose DMEM supplemented with 2 mM GlutaMAX, 10% dialysed foetal bovine serum with penicillin/streptomycin and G418 (400 μg/mL) at 37 °C and 6.3% CO2 in a humidified atmosphere as previously reported. […] As a negative control, HEK293T cells were mock-transfected with the empty expression vector. After a further 24 h of incubation, the HEK293T cells were washed with C1 buffer (130 mM NaCl, 5 mM KCl, 10 mM HEPES pH 7.4 and 2 mM CaCl2). The 96-well plates containing the cells were then stimulated with sweet-tasting compounds. […] Different concentration ranges were tested depending on the sweet compound injected. The Ca^2+ changes were expressed as fractional changes in fluorescent light intensity: ΔF/F = (F − F0)/F0, where F was the fluorescent light intensity at each point, and F0 was the value of emitted fluorescent light prior to stimulus application. To calculate dose–response relationships, the changes in fluorescence upon stimulus application were averaged, mock-subtracted and baseline-corrected. The dose–response data obtained were adjusted using a 4-parameter logistic equation. The half-maximal effective concentrations (EC50 values) and maximal signal amplitudes were calculated using SigmaPlot software (version 15.0) (Systat Software; San Jose, CA, USA).
For in vitro calcium mobilisation assay performed on hTAS1R2-SNPs, hTAS1R3-SNPs and mTAS1R3-I60T, 6 to 7 concentrations were tested for each sweet compound, plus buffer alone. All concentration–receptor combinations were measured in duplicate, and each experiment was repeated at least 4 times (8 wells/concentration). Results were expressed for each concentration as ΔF/F mean ± SEM and represented as dose–response curves.

`OC[C@H]1O[C@H](O[C@]2(CCl)O[C@H](CCl)[C@@H](O)[C@@H]2O)[C@H](O)[C@@H](O)[C@H]1Cl` [Sucralose] was tested, and the “R1 = Variant EC50/WT EC50” value was 1.7, the “Max ΔF/F0” value was 0.32 ± 0.01 and the EC50 (read-out: EC50) was 182 ± 7 µM.

For `O=S(=O)(O)NC1CCCCC1` [Cyclamate, cyclamate], the EC50 (read-out: EC50) was 2120 ± 34 µM.

With `C=C(C)[C@@H]1CC=C(/C=N/O)CC1` [Perillartine, perillartine] the “R1 = Variant EC50/WT EC50” value was 2.3, the “Max ΔF/F0” value was 1.49 ± 0.24 and the EC50 (read-out: EC50) was 32 ± 17.1 µM.

For `C=C1C[C@@]23CC[C@H]4[C@@](C)(CCC[C@@]4(C)C(=O)O[C@@H]4O[C@H](CO)[C@@H](O)[C@H](O[C@@H]5O[C@H](CO)[C@@H](O)[C@H](O)[C@H]5O)[C@H]4O[C@@H]4O[C@H](CO)[C@@H](O)[C@H](O)[C@H]4O)[C@@H]2CC[C@]1(O[C@@H]1O[C@H](CO)[C@@H](O)[C@H](O[C@@H]2O[C@H](CO)[C@@H](O)[C@H](O)[C@H]2O)[C@H]1O[C@@H]1O[C@H](CO)[C@@H](O)[C@H](O)[C@H]1O)C3` [Rebaudioside M, rebaudioside M], the “R1 = Variant EC50/WT EC50” value was 1.2, the “Max ΔF/F0” value was 0.35 ± 0.01 and the EC50 (read-out: EC50) was 47.3 ± 1.9 µM.

In the case of `COc1ccc(CCC(=O)c2c(O)cc(O[C@@H]3O[C@H](CO)[C@@H](O)[C@H](O)[C@H]3O[C@@H]3O[C@@H](C)[C@H](O)[C@@H](O)[C@H]3O)cc2O)cc1O` [NHDC, neohesperidin dihydrochalcone], the “R1 = Variant EC50/WT EC50” value is reported as 1.6, the “Max ΔF/F0” value is reported as 0.75 ± 0.05 and the EC50 (read-out: EC50) is reported as 81.3 ± 13.1 µM.

thaumatin was tested, and the “R1 = Variant EC50/WT EC50” value was 1.4 and the “Max ΔF/F0” value was 0.52 ± 0.01.

For `CC1=CC(=O)NS(=O)(=O)O1` [Acesulfame K, acesulfame K], the “R1 = Variant EC50/WT EC50” value was 0.7, the “Max ΔF/F0” value was 0.06 ± 0.01 and the EC50 (read-out: EC50) was 443 ± 121 µM.

In the case of “brazzein (QDKCKKVYENYPVSKCQLANQCNYDCKLDKHARSGECFYDEKRNLQCICDYCEY; ends and bridges not checked; cysteine pairing not given here; UniProt P56552 1-54, looked up) [sweet-tasting protein obtained by recombinant production using the yeast Pichia pastoris]”, the “R1 = Variant EC50/WT EC50” value is reported as 1.6, the EC50 (brazzein) is reported as 181.7 ± 6.9 µg/mL and the “Max ΔF/F0” value is reported as 0.72 ± 0.01.

For `C[C@H](CC[C@@H](O[C@@H]1O[C@H](CO[C@@H]2O[C@H](CO)[C@@H](O)[C@H](O)[C@H]2O)[C@@H](O)[C@H](O)[C@H]1O[C@@H]1O[C@H](CO)[C@@H](O)[C@H](O)[C@H]1O)C(C)(C)O)[C@H]1CC[C@@]2(C)[C@@H]3CC=C4[C@@H](CC[C@H](O[C@@H]5O[C@H](CO[C@@H]6O[C@H](CO)[C@@H](O)[C@H](O)[C@H]6O)[C@@H](O)[C@H](O)[C@H]5O)C4(C)C)[C@]3(C)[C@H](O)C[C@]12C` [Mogroside V, mogroside V], the “R1 = Variant EC50/WT EC50” value was 2.6, the “Max ΔF/F0” value was 0.60 ± 0.02 and the EC50 (read-out: EC50) was 82.4 ± 5.2 µM.

`COC(=O)[C@H](Cc1ccccc1)NC(=O)[C@H](CC(=O)O)NCCC(C)(C)C` [Neotame] was tested, and the “R1 = Variant EC50/WT EC50” value was 1.6, the “Max ΔF/F0” value was 0.31 ± 0.01 and the EC50 (read-out: EC50) was 1.95 ± 0.09 µM.

B1: thaumatin (protein)
chain: ATFEIVNRCSYTVWAAASKGDAALDAGGRQLNSGESWTINVEPGTKGGKIWARTDCYFDDSGSGICKTGDCGGLLRCKRFGRPPTTLAEFSLNQYGKDYIDISNIKGFNVPMDFSPTTRGCRGVRCAADIVGQCPAKLKAPGGGCNDACTVFQTSEYCCTTGKCGPTEYSRFFKRLCPDAFSYVLDKPTTVTCPGSSNYRVTFCPTA
modifications: Eight disulfides
notes: sweet-tasting plant protein, E957
In the case of B1, the EC50 (read-out: EC50) is reported as 14.8 ± 0.5 µM.
